{
  "source": "patent US10974081B2",
  "about": "“Treatment and prevention of sleep disorders” (Purdue Pharma L.P., priority 2016, dated 2021)",
  "system": "rats",
  "note": "Like-named read-outs stand apart in the source and are kept apart here.",
  "data": [
    {"smiles": "O=C(O)c1nc2ccccc2n([C@H]2C[C@H]3CCC[C@@H](C2)N3C2CC3CCCC(C3)C2)c1=O", "note": "(stereo partly shown) [Compound (1D)]", "values": [
      {"measurement": "overall sleep effect", "setting": "30 mg/kg/day oral", "result": "significant sleep-enhancing effects"},
      {"measurement": "tachyphylaxis over the seven day period", "setting": "30 mg/kg/day oral for 7 days", "result": "minimal tachyphylaxis"},
      {"measurement": "percentage of time spent in wakefulness", "setting": "30 mg/kg/day oral, Day 1, 1 hour block at 4 hours after dosing (FIG. 5A)", "result": "about 52%"},
      {"measurement": "percentage of time spent in NREM sleep", "setting": "30 mg/kg/day oral, Day 1, 1 hour block at 4 hours after dosing (FIG. 5C)", "result": "about 41%"},
      {"measurement": "percentage of time spent in NREM sleep", "setting": "30 mg/kg/day oral, Day 1, 1 hour block at 5 hours after dosing (FIG. 5C)", "result": "~54", "unit": "%"},
      {"measurement": "percentage of time spent in REM sleep", "setting": "30 mg/kg/day oral, Day 1, 1 hour block at 7 hours after dosing (FIG. 5B)", "result": "about 2.5%"},
      {"measurement": "total amount of wakefulness", "setting": "30 mg/kg/day oral, Day 1, 3 hour block, 3 to 6 hours after dosing (FIG. 6A)", "result": "about 47%"},
      {"measurement": "total amount of NREM sleep", "setting": "30 mg/kg/day oral, Day 1, 3 hour block, 3 to 6 hours after dosing (FIG. 6C)", "result": "about 46%"},
      {"measurement": "effect on percentage of time spent in REM sleep", "setting": "30 mg/kg/day oral, Day 1, 3 hour blocks (FIG. 6B)", "result": "no significant effects"},
      {"measurement": "effect on percentage of time spent in REM sleep", "setting": "30 mg/kg/day oral, Day 4 (FIG. 7B, 8B)", "result": "no significant effects"},
      {"measurement": "total amount of wakefulness", "setting": "30 mg/kg/day oral, Day 4, 3 to 6 hours after dosing (FIG. 8A)", "result": "about 55%"},
      {"measurement": "total amount of NREM sleep", "setting": "30 mg/kg/day oral, Day 4, 3 to 6 hours after dosing (FIG. 8C)", "result": "about 41%"},
      {"measurement": "percentage of time spent in NREM sleep", "setting": "30 mg/kg/day oral, Day 4, 1 hour block at 4 hours after dosing (FIG. 7C)", "result": "about 42%"},
      {"measurement": "effect on percentage of time spent in REM sleep", "setting": "30 mg/kg/day oral, Day 7 (FIG. 9B, 10B)", "result": "no significant effects"},
      {"measurement": "percentage of time spent in wakefulness versus vehicle", "setting": "30 mg/kg/day oral, Day 7, lights-out period (FIG. 9A)", "result": "decreasing tendency"},
      {"measurement": "percentage of time spent in NREM sleep versus vehicle", "setting": "30 mg/kg/day oral, Day 7, lights-out period (FIG. 9C)", "result": "increased tendency"},
      {"measurement": "effect on time spent in REM sleep", "setting": "Day 8 (no dosing) after 30 mg/kg/day for 7 days (FIG. 11B)", "result": "no effect"},
      {"measurement": "percentage of time spent in wakefulness versus vehicle", "setting": "Day 8 (no dosing) after 30 mg/kg/day for 7 days, at 27, 35, and 46 hours (FIG. 11A)", "result": "significantly increased"},
      {"measurement": "percentage of time spent in NREM sleep versus vehicle", "setting": "Day 8 (no dosing) after 30 mg/kg/day for 7 days, at 27, 35, and 46 hours (FIG. 11C)", "result": "significantly decreased"}
    ]}
  ]
}
